Test results as given in article PMC11195807, “Development of a multi-targeted chemotherapeutic approach based on G-quadruplex stabilisation and carbonic anhydrase inhibition” (Journal of Enzyme Inhibition and Medicinal Chemistry, 2024).
Values joined by “and” are separate entries in the source; they are usually repeats but may differ in a detail not shown here. Identical values can stand only once.

How the values were obtained:
Tel23 = assay: CD melting experiments, Tel23 GQ; type: binding, human; conditions: for ΔT1/2 Tel23: 2 molar equiv compound, T1/2 of DNA alone 53.5 °C; for ΔΔT1/2 Tel23: ΔT1/2 of compound minus ΔT1/2 of berberine, 2 molar equiv
Description: (§1) The 21 synthesised MTDLs were screened for their ability to bind to and stabilise DNA GQ-forming sequences, compared to berberine, by CD experiments. Indeed, circular dichroism has shown to be outstandingly useful and informative for noncanonical nucleic acid secondary structures. For this purpose, a G-rich 23-nucleotide truncation (23-nt) of the human telomeric sequence (Tel23) and two G-rich motifs from the promoter regions of c-KIT (c-Kit1) and c-MYC (c-Myc) oncogenes were employed. First, the overall topology adopted by each DNA sequence in K^+-containing buffer was verified by CD spectra. […] GQ conformation (Figure S1, Supporting Information). On the other hand, c-Kit1 and c-Myc sequences adopted a parallel GQ conformation, showing a distinctive positive band at around 260 nm and a negative one at ∼240 nm in their CD spectra (Figures S2 and S3, Supporting Information).
(§2) Afterwards, the GQ-stabilising properties of the molecules were assessed by CD melting experiments, measuring the differences in the apparent melting temperatures of the DNA in the presence and absence of compounds (ΔT1/2) (Figures S4–S6 and Table S2, Supporting Information). […] This could be explained by considering the higher accessibility of the external G-tetrads in the case of parallel GQs compared to the hybrid one[52], which would allow the additional CAI moiety of conjugated compounds to be better accommodated in the binding site. […] . […] .

hCA I = biological target: T1, hCA I (Homo sapiens, UniProt P00915); assay: stopped-flow CO2 hydrase assay, hCA I; type: biochemical
T1 construct: made in house
Protocol: (§3) An Applied Photophysics stopped-flow instrument has been used for assaying the CA-catalysed CO2 hydration activity, as reported earlier. The enzyme concentrations were in the range 5–12 nM. All hCA isoforms were recombinant proteins, being obtained in-house as reported earlier.

hCA II = biological target: T2, hCA II (Homo sapiens, UniProt P00918); assay: stopped-flow CO2 hydrase assay, hCA II; type: biochemical
T2 construct: made in house
Description: . The structure-activity relationship is discussed separately for the two compound subsets. Another code pattern is included for the MTDLs in Table 1, which indicates the derivative CAI type (sulphonamide, S or coumarin, C) and the number of atoms in the spacers connecting either berberine and the triazole (carbon atoms) or the triazole and the benzenesulfonamide/coumarin scaffolds (carbon or oxygen atoms).
as §3

hCA IX = biological target: T3, hCA IX (Homo sapiens, UniProt Q16790); assay: stopped-flow CO2 hydrase assay, hCA IX; type: biochemical; conditions: for Ki: mean ± SEM of three assays; for Selectivity index (SI) I/IX: hCA IX over hCA I; for Selectivity index (SI) II/IX: hCA IX over hCA II
T3 construct: made in house
Description: (§4) An Applied Photophysics stopped-flow instrument has been used for assaying the CA-catalysed CO2 hydration activity, as reported earlier. […] All hCA isoforms were recombinant proteins, being obtained in-house as reported earlier.

Hairpin = assay: CD melting experiments, hairpin DNA duplex; conditions: 2 molar equiv compound, T1/2 of DNA alone 66.0 °C
Protocol: To evaluate the possible binding and stabilisation of double-stranded DNA, a 27-nt long hairpin-forming sequence (Hairpin) was employed.
In particular, the following DNA sequences were synthesised and employed for the experiments: d([sequence]) (c-Kit1), d([sequence]) (c-Myc), d([sequence]) (Tel23), and d([sequence]) (Hairpin). Oligonucleotides were dissolved in the proper buffer and their concentration was measured by UV absorption at 90 °C, as previously reported[80]^,[81]. To achieve the correct folding of the sequences, the DNA solutions were heated in a water bath at 90 °C for 5 min, and then allowed to cool slowly to room temperature overnight. Then, DNA samples were stored at 4 °C for 24 h, before data acquisition.
The samples were prepared by dissolving the oligonucleotides in 5 mM KH2PO4/K2HPO4 buffer (pH 7.0) containing 20 mM KCl (or LiCl in the case of c-Myc because of its high thermal stability). DNA concentrations of 20 µM for GQs and 30 µM for Hairpin were used. For each compound, a 10 mM stock solution in 100% DMSO was prepared. […] CD spectra were acquired at 20 and 100 °C, in the 230–320 nm wavelength range, averaged over three scans and subtracted of the buffer baseline. The scanning speed was set to 100 nm/min, with a 0.5 s response time, and 1 nm bandwidth. CD melting experiments were carried out in the 20–100 °C temperature range, with 1 °C/min heating rate, by following changes in the CD signal at the wavelengths of the maximum CD intensity (i.e. 263 nm for c-Kit1 and c-Myc, and 290 nm for Tel23). As for Hairpin, CD melting curves were recorded by following the changes in the CD signal at 252 nm (the wavelength of the minimum CD intensity). CD melting curves were normalised between 0 and 1. […] The ΔT1/2 values correspond to the difference in the T1/2 values of the nucleic acid structures in the presence and absence of the compounds. All experiments were performed in duplicate, and the reported values are the mean of the two measurements.

hCA XII = biological target: T4, hCA XII (Homo sapiens, UniProt O43570); assay: stopped-flow CO2 hydrase assay, hCA XII; type: biochemical; conditions: for Ki: mean ± SEM of three assays; for Selectivity index (SI) I/XII: hCA XII over hCA I; for Selectivity index (SI) II/XII: hCA XII over hCA II
T4 construct: made in house
Description: as §4

c-Myc = assay: CD melting experiments, c-Myc GQ; type: binding; conditions: for ΔT1/2 c-Myc: 1 molar equiv compound, T1/2 of DNA alone 70.0 °C; for ΔΔT1/2 c-Myc: ΔT1/2 of compound minus ΔT1/2 of berberine, 1 molar equiv
Description: as §1, §2

c-Kit1 = assay: CD melting experiments, c-Kit1 GQ; type: binding; conditions: for ΔT1/2 c-Kit1: 2 molar equiv compound, T1/2 of DNA alone 55.0 °C; for ΔΔT1/2 c-Kit1: ΔT1/2 of compound minus ΔT1/2 of berberine, 2 molar equiv
Description: as §1, §2

[1] = coumarins, inhibitor-enzyme incubation 6 h
[2] = sulphonamides, inhibitor-enzyme incubation 15 min, mean ± SEM of three assays
[3] = sulphonamides, inhibitor-enzyme incubation 15 min

T1 sequence (P00915 whole entry): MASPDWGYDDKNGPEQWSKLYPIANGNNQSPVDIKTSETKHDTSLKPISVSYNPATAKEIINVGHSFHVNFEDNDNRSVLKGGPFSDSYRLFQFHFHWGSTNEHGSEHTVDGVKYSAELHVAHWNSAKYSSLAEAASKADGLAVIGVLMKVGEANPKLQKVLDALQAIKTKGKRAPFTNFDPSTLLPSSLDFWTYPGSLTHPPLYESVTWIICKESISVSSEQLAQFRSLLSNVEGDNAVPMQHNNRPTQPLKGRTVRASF
T4 sequence (O43570 25-354): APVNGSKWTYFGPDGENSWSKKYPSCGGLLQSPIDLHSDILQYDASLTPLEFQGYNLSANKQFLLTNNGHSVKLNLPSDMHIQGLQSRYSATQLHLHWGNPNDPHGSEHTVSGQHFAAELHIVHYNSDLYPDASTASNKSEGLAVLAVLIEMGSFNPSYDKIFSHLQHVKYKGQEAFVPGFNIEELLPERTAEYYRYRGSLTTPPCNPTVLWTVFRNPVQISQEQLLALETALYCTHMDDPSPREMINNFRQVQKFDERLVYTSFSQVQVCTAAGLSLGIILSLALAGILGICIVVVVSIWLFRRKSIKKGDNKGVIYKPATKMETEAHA

| SMILES | Ki (hCA I; [1]) [nM] | Ki (hCA II; [1]) [nM] | Ki (hCA IX; [1]) [nM] | Selectivity index (SI) I/IX (hCA IX) | Selectivity index (SI) II/IX (hCA IX) | Ki (hCA XII; [1]) [nM] | Selectivity index (SI) I/XII (hCA XII) | Selectivity index (SI) II/XII (hCA XII) | Ki (hCA I; [2]) [nM] | Ki (hCA II; [2]) | Ki (hCA IX; [3]) [nM] | Ki (hCA XII; [3]) [nM] | ΔT1/2 Tel23 (Tel23) [°C] | ΔΔT1/2 Tel23 (Tel23) [°C] | ΔT1/2 Hairpin (Hairpin) | ΔT1/2 c-Myc (c-Myc) [°C] | ΔΔT1/2 c-Myc (c-Myc) [°C] | ΔT1/2 c-Kit1 (c-Kit1) [°C] | ΔΔT1/2 c-Kit1 (c-Kit1) [°C] | ΔΔT1/2 c-Myc (c-Myc; listed as C-1,0c) [°C] |
| --- | --- | --- | --- | --- | --- | --- | --- | --- | --- | --- | --- | --- | --- | --- | --- | --- | --- | --- | --- | --- |
| COc1ccc2cc3[n+](cc2c1OCCCCn1cc(CCOc2ccc4ccc(=O)oc4c2)nn1)CCc1cc2c(cc1-3)OCO2 [Compound 38, 10-Methoxy-9–(4-(4–(2-((2-oxo-2H-chromen-7-yl)oxy)ethyl)-1H-1,2,3-triazol-1-yl)butoxy)-5,6-dihydro-[1,3]dioxolo[4,5-g]isoquinolino[3,2-a]isoquinolin-7-ium hexafluorophosphate] | > 100000 | > 100000 | 30.1 ± 1.8 | > 332.2 | > 332.2 | 16.7 ± 1.2 | > 598.8 | > 598.8 | – | – | – | – | 7.5 | −2.0 | -2.0 °C | 15.0 | 3.0 | 17.5 | 4.5 | – |
| COc1ccc2cc3[n+](cc2c1OCCCCCn1cc(COc2ccc(S(N)(=O)=O)cc2)nn1)CCc1cc2c(cc1-3)OCO2 [Compound 33, 10-Methoxy-9-((5–(4-((4-sulfamoylphenoxy)methyl)-1H-1,2,3-triazol-1-yl)pentyl)oxy)-5,6-dihydro-[1,3]dioxolo[4,5-g]isoquinolino[3,2-a]isoquinolin-7-ium hexafluorophosphate] | – | – | – | 406.5 | 76.1 | – | 75.7 | 14.2 | 219 ± 16.2 | 41.1 ± 2.7 nM | 0.54 ± 0.03 | 2.9 ± 0.1 | 10.5 | 1.0 | +0.2 °C | 12.5 | 0.5 | 18.5 | 5.5 | – |
| COc1ccc2cc3[n+](cc2c1OCCn1cc(COc2ccc(S(N)(=O)=O)cc2)nn1)CCc1cc2c(cc1-3)OCO2 [Compound 27, 10-Methoxy-9–(2-(4-((4-sulfamoylphenoxy)methyl)-1H-1,2,3-triazol-1-yl)ethoxy)-5,6-dihydro-[1,3]dioxolo[4,5-g]isoquinolino[3,2-a]isoquinolin-7-ium hexafluorophosphate] | – | – | – | 1446 | 9.2 | – | 213.7 | 1.4 | 940 ± 52.1 | 6 nM | 0.65 ± 0.05 | 4.4 | 7.5 | −2.0 | -0.5 °C | 18.5 | 6.5 | 18.5 | 5.5 | – |

More lines, main results first:

| Ki (hCA I; [1]) [nM] | Ki (hCA II; [1]) [nM] | Ki (hCA IX; [1]) [nM] | Selectivity index (SI) I/IX (hCA IX) | Selectivity index (SI) II/IX (hCA IX) | Ki (hCA XII; [1]) [nM] | Selectivity index (SI) I/XII (hCA XII) | Selectivity index (SI) II/XII (hCA XII) | Ki (hCA I; [2]) [nM] | Ki (hCA II; [2]) | Ki (hCA IX; [3]) [nM] | Ki (hCA XII; [3]) [nM] | SMILES | ΔT1/2 Tel23 (Tel23) [°C] | ΔΔT1/2 Tel23 (Tel23) [°C] | ΔT1/2 Hairpin (Hairpin) | ΔT1/2 c-Myc (c-Myc) [°C] | ΔΔT1/2 c-Myc (c-Myc) [°C] | ΔT1/2 c-Kit1 (c-Kit1) [°C] | ΔΔT1/2 c-Kit1 (c-Kit1) [°C] | ΔΔT1/2 c-Myc (c-Myc; listed as C-1,0c) [°C] |
| --- | --- | --- | --- | --- | --- | --- | --- | --- | --- | --- | --- | --- | --- | --- | --- | --- | --- | --- | --- | --- |
| > 100000 | > 100000 | 51.5 ± 3.6 | > 194.2 | > 194.2 | 5.4 ± 0.3 | > 1852 | > 1852 | – | – | – | – | COc1ccc2cc3[n+](cc2c1OCc1cn(-c2ccc4c(C)cc(=O)oc4c2)nn1)CCc1cc2c(cc1-3)OCO2 [Compound 45, 10-Methoxy-9-((1–(4-methyl-2-oxo-2H-chromen-7-yl)-1H-1,2,3-triazol-4-yl)methoxy)-5,6-dihydro-[1,3]dioxolo[4,5-g]isoquinolino[3,2-a]isoquinolin-7-ium hexafluorophosphate] | 7.0 | −2.5 | +2.5 °C | – | >13.0 | 16.5 | 3.5 | > 13.0 |
| > 100000 | > 100000 | 35.1 ± 2.8 | > 284.9 | > 284.9 | 10.2 ± 0.8 | > 980.4 | > 980.4 | – | – | – | – | COc1ccc2cc3[n+](cc2c1OCc1cn(CCCOc2ccc4ccc(=O)oc4c2)nn1)CCc1cc2c(cc1-3)OCO2 [Compound 42, 10-Methoxy-9-((1–(3-((2-oxo-2H-chromen-7-yl)oxy)propyl)-1H-1,2,3-triazol-4-yl)methoxy)-5,6-dihydro-[1,3]dioxolo[4,5-g]isoquinolino[3,2-a]isoquinolin-7-ium hexafluorophosphate] | 10.5 | 1.0 | +0.5 °C | 16.0 | 4.0 | 17.0 | 4.0 | – |
| – | – | – | 4.2 | 1.2 | – | 2.1 | 0.6 | 75.1 ± 5.4 | 21.5 nM and 22.1 nM | 17.8 ± 0.9 | 35.9 ± 2.1 | COc1ccc2cc3[n+](cc2c1OCCCS(N)(=O)=O)CCc1cc2c(cc1-3)OCO2 [Compound 47, 10-methoxy-9–(3-sulfamoylpropoxy)-5,6-dihydro-[1,3]dioxolo[4,5-g]isoquinolino[3,2-a]isoquinolin-7-ium hexafluorophosphate] | 6.5 | −3.0 | +2.0 °C | 12.5 | 0.5 | 15.5 | 2.5 | – |
